Data published in patent publication US11480576B2, “Conjugated oligomer-based macrocycles for live cell imaging” (THE FLORIDA INTERNATIONAL UNIVERSITY BOARD OF TRUSTEES, priority 2019, dated 2022).

Assay: Photophysical properties of PEMCs (UV-vis absorption, fluorescence, QY)
Assay type: physicochemical
Protocol: Chemicals, including solvents, were purchased from Fisher Scientific and used as received. Deuterated solvents were purchased from Cambridge Isotope Laboratories (Cambridge, Mass.). All chemicals and solvents were purchased and used without further purification. Nuclear magnetic resonance (NMR) spectra were recorded on a 400 MHz Avance Bruker NMR spectrometer. ^1H and ^13C NMR chemical shifts are given in ppm relative to Si(CH3)4. The mass spectrometric data were conducted on a Bruker Solarix FT-ICRMS. Data for crystal structure was obtained on a Bruker D8 Quest CMOS diffractometer. The crystal was kept at T=296(2) K during data collection. Using APEX3, the structure was solved with the ShelXT 2014/5 structure solution program, using the intrinsic phasing method. The model was refined with version 2016/6 of ShelXL using full matrix least squares on F^2 minimization, using the Olex2 GUI. Analytical thin layer chromatography (TLC) was performed on TLC Silica gel 60 F254. […] UV-vis spectra were recorded on a Varian Cary 50 Bio spectrophotometer. Fluorescence spectra were obtained using a FluoroLog-3 Spectrofluorometer (Jobin Yvon/Horiba). 9,10-diphenylanthracene (QY=1.0) in cyclohexane was used as a fluorescence standard for QY determination. Fourier transform infrared (FTIR) spectra were recorded on a PerkinElmer Spectrum 100 FTIR Spectrometer. […]

## COc1cc(C#Cc2ccc(C=O)cc2)c(OC)cc1C#Cc1ccc(C=O)cc1 [1a, 4,4′-((2,5-dimethoxy-1,4-phenylene)bis(ethyne-2,1-diyl))dibenzaldehyde]
  Extinction coefficient (ε): 62700 M⁻¹ cm⁻¹
9,10-Diphenylanthracene (QY = 1.0) in cyclohexane as fluorescence standard
  Quantum Yield (QY): 31%
